A short description of assay [1]: Inhibition of SARS CoV 3C-like protease using Abz-SVTLQSG-Tyr(NO2)R as substrate by fluorescence method. Also noted: species or system Severe acute respiratory syndrome-related coronavirus.
Assay [2] concerns Severe acute respiratory syndrome-related coronavirus. Nature of the assay: Irreversible inhibition of SARS CoV 3C-like protease assessed as ratio of Kinact to Ki using Abz-Ser-Val-Thr-Leu-Gln-Ser-Gly-(NO2)Tyr-Arg as substrate by fluorescence method.
The nature of assay [3]: Competitive inhibition of SARS CoV 3C-like protease using fluorogenic substrate by Lineweaver-Burk plot analysis. Also noted: species or system Severe acute respiratory syndrome-related coronavirus.
Assay [4] is described as follows: Inhibition of SARS CoV papain-like protease using Arg-Leu-Arg-Gly-Gly-AMC as substrate by fluorescence method. Details: species or system Severe acute respiratory syndrome-related coronavirus.
Assay [5] can be described thus: Inhibition of SARS CoV 3C-like protease using 12-mer fluorogenic peptide Dabcyl-KNSTLQSGLRKE-Edans as substrate incubated for 60 mins by fluorometric assay. Details: species or system Severe acute respiratory syndrome-related coronavirus.
Assay [6] is described as follows: Inhibition of SARS CoV His-tagged 3C-like protease expressed in Escherichia coli BL21 using Dabcyl-KTSAVLQ-SGFRKME-Edans as substrate by Lineweaver-Burk analysis. Details: species or system Severe acute respiratory syndrome-related coronavirus.
Assay [7] can be described thus: Inhibition of SARS CoV 3C-like protease. Also noted: species or system Severe acute respiratory syndrome-related coronavirus.
Assay [8] can be described thus: Inhibition of SARS CoV HKU3984 His-tagged 3C-like protease using H2N-TSAVLQSGFRKW-COOH as substrate by HPLC method. Also noted: species or system Severe acute respiratory syndrome-related coronavirus.
Assay [9] can be described thus: Inhibition of MERS CoV 3C-like protease using Dabcyl-KTSAVLQSGFRKME-Edans as substrate by fluorometric assay. Also noted: species or system Middle East respiratory syndrome-related coronavirus.
Assay [10] in a line: Inhibition of SARS CoV 3C-like protease using Dabcyl-KTSAVLQSGFRKME-Edans as substrate by fluorometric assay. Details: species or system Severe acute respiratory syndrome-related coronavirus.
Assay [11] can be described thus: Inhibition of SARS CoV 3C-like protease expressed in Escherichia coli GJ1158 using 2-aminobenzoyl-SVTLQSG-Tyr(NO2)-R as substrate by FRET assay. Details: species or system Severe acute respiratory syndrome-related coronavirus.

pIC50, pKi: −log10 of the molar value.

The pIC50 is the IC50 on a negative log10 scale, so that one unit is a factor of ten. Molecule `CC(=O)N[C@H](C(=O)N[C@H](C(=O)N[C@@H](CC(C)C)C(=O)N[C@@H](C[C@@H]1CCNC1=O)C(=O)CN1Cc2cccc([N+](=O)[O-])c2C(=O)N1)[C@@H](C)OCc1ccccc1)C(C)C` gave a pIC50 in assay [1] of 6.22.
For the molecule `CCOC(=O)C1OC1C(=O)N(CCC(N)=O)NC(=O)[C@H](Cc1ccccc1)NC(=O)[C@H](CC(C)C)NC(=O)OCc1ccccc1` (some centres not stated), the Ratio in assay [2] was 1900 M⁻¹ s⁻¹.
As usually defined, the pKi is the negative decadic logarithm of the Ki, by convention in mol/L. The low end stands for a high Ki, the high end for a low Ki. Turning to `CC(C)[C@H](NC(=O)[C@H](C)NC(=O)OCc1ccccc1)C(=O)C[C@@H](Cc1c[nH]c2ccccc12)[C@@H](O)[C@H](O)[C@H](Cc1c[nH]c2ccccc12)NC(=O)[C@@H](NC(=O)[C@H](C)NC(=O)OCc1ccccc1)C(C)C`, the negative logarithm of the Ki (pKi) in assay [3] was 7.14.
With `O=C(/C=C/CCc1ccc(O)c(O)c1)CCc1ccc(O)c(O)c1` [DEHYDROHIRSUTANONOL], the pIC50 was 5.39 in assay [4] and 4.44 in assay [5].
Consider `CC(C)[C@H](NC(=O)[C@H](C)NC(=O)OCc1ccccc1)C(=O)C[C@@H](Cc1ccccc1)[C@@H](O)[C@H](O)[C@H](Cc1ccccc1)NC(=O)[C@@H](NC(=O)[C@H](C)NC(=O)OCc1ccccc1)C(C)C`, for which, in [6], the pKi is 6.22.
On to `O=C(/C=C/c1ccccc1)N[C@@H](Cc1ccccc1)C(=O)N[C@@H](C[C@@H]1CCNC1=O)C(=O)C(=O)NCc1ccccc1`, for which, in [7], the pIC50 is 5.71.
On the same count and under the same terms, the value for `O=C(/C=C/c1ccccc1)N[C@@H](CC1CCCCC1)C(=O)N[C@@H](C[C@@H]1CCNC1=O)C(=O)C(=O)NCc1ccccc1` was 6.15.
In assay [8], `CC1=C(C(=O)OCCc2ccccc2)C(c2ccccc2[N+](=O)[O-])C2=C(CCCC2=O)N1` (configuration not stated) gave a pIC50 of 5.60.
For the molecule `O=C[C@@H](C[C@H]1CCNC1=O)NC(=O)[C@@H](Cc1ccccc1)NC(=O)/C=C/c1ccc(Cl)cc1F`, the pIC50 in assay [9] is 5.33; in [10], 6.70.
Molecule `Cc1ccc2nc(-c3ccc(N)cc3)sc2c1S(=O)(=O)O` had a pIC50 in assay [11] of 5.37.

The values above are taken from ChEMBL document CHEMBL4732232, “Protease targeted COVID-19 drug discovery: What we have learned from the past SARS-CoV inhibitors?” (Eur J Med Chem, 2021).
